Experimental data taken from ChEMBL document CHEMBL3045339, “Synthesis of benzoxazoles, benzothiazoles and benzimidazoles and evaluation of their antifungal, insecticidal and herbicidal activities” (1992).
≈ marks a conversion by molar mass, not a printed value.

How the values were obtained:
Type in all cases: functional
Oryza sativa = assay: Herbicidal activity against Oryza sativa assessed as disease control at 1000 ppm treated in paddy field during 15 to 20 days relative to control
Chenopodium album [1] = assay: Herbicidal activity against Chenopodium album assessed as disease control at 1000 ppm treated in soil during 15 to 20 days relative to control
Echinochloa crus-galli [2] = assay: Herbicidal activity against Echinochloa crus-galli (barnyard grass) assessed as disease control at 1000 ppm treated in foliage during 15 to 20 days relative to control
Persicaria hydropiper [3] = assay: Herbicidal activity against Persicaria hydropiper assessed as disease control at 1000 ppm treated in foliage during 15 to 20 days relative to control
Echinochloa crus-galli [4] = assay: Herbicidal activity against Echinochloa crus-galli (barnyard grass) assessed as disease control at 1000 ppm treated in paddy field during 15 to 20 days relative to control
Eleusine indica [5] = assay: Herbicidal activity against Eleusine indica assessed as disease control at 1000 ppm treated in foliage during 15 to 20 days relative to control
Echinochloa crus-galli [6] = assay: Herbicidal activity against Echinochloa crus-galli (barnyard grass) assessed as disease control at 1000 ppm treated in soil during 15 to 20 days relative to control
Chenopodium album [7] = assay: Herbicidal activity against Chenopodium album assessed as disease control at 1000 ppm treated in foliage during 15 to 20 days relative to control
Cyperus compressus = assay: Herbicidal activity against Cyperus compressus assessed as disease control at 1000 ppm treated in paddy field during 15 to 20 days relative to control
Amaranthus viridis [8] = assay: Herbicidal activity against Amaranthus viridis assessed as disease control at 1000 ppm treated in foliage during 15 to 20 days relative to control
Amaranthus viridis [9] = assay: Herbicidal activity against Amaranthus viridis assessed as disease control at 1000 ppm treated in soil during 15 to 20 days relative to control
[10] = system: Pseudoperonospora cubensis; assay: Antifungal activity against Pseudoperonospora cubensis after 7 days; set-up: concentration or dose not given beside the values
Persicaria hydropiper [11] = assay: Herbicidal activity against Persicaria hydropiper assessed as disease control at 1000 ppm treated in soil during 15 to 20 days relative to control
Xanthomonas axonopodis = assay: Antibacterial activity against Xanthomonas axonopodis after 7 days; set-up: concentration or dose not given beside the values
Fusarium fujikuroi = assay: Antifungal activity against Fusarium fujikuroi after 7 days; set-up: concentration or dose not given beside the values
Pyricularia oryzae = assay: Antifungal activity against Magnaporthe oryzae after 7 days; set-up: concentration or dose not given beside the values
Eleusine indica [12] = assay: Herbicidal activity against Eleusine indica assessed as disease control at 1000 ppm treated in soil during 15 to 20 days relative to control
Botrytis cinerea = assay: Antifungal activity against Botryotinia fuckeliana after 7 days; set-up: concentration or dose not given beside the values
Pseudomonas aeruginosa = assay: Antibacterial activity against Pseudomonas aeruginosa after 48 hr
Bacillus subtilis = assay: Antibacterial activity against Bacillus subtilis after 48 hr
Escherichia coli = assay: Antibacterial activity against Escherichia coli after 48 hr

Row | Compound | Activity (Oryza sativa) [%] | Activity (Chenopodium album [1]) [%] | Activity (Echinochloa crus-galli [2]) [%] | Activity (Persicaria hydropiper [3]) [%] | Activity (Echinochloa crus-galli [4]) [%] | Activity (Eleusine indica [5]) [%] | Activity (Echinochloa crus-galli [6]) [%] | Activity (Chenopodium album [7]) [%] | Activity (Cyperus compressus) [%] | Activity (Amaranthus viridis [8]) [%] | Activity (Amaranthus viridis [9]) [%] | Activity [10] [%] | Activity (Persicaria hydropiper [11]) [%] | Activity (Xanthomonas axonopodis) [%] | Activity (Fusarium fujikuroi) [%] | Activity (Pyricularia oryzae) [%] | Activity (Eleusine indica [12]) [%] | Activity (Botrytis cinerea) [%] | other results
1 | c1ccc2oc(-c3ccncc3)nc2c1 | <39 | <39 | <39 | <39 | 40 | <39 | <39 | <39 | <39 | <39 | <39 | <39 | <39 | <39 | 60 | <39 | <39 | 40 | 
2 | c1ccc2nc(-c3nc4ccccc4o3)ccc2c1 | 40 | <39 | <39 | <39 | <39 | <39 | <39 | <39 | <39 | <39 | <39 | <39 | <39 | <39 | <39 | <39 | <39 | <39 | 
3 | COc1ccc2sc(-c3ccccn3)nc2c1 | 40 | <39 | <39 | <39 | <39 | <39 | <39 | <39 | 60 | 40 | <39 | <39 | <39 | <39 | <39 | <39 | <39 | <39 | 
4 | c1ccc(-c2nc3ccccc3o2)nc1 | <39 | <39 | <39 | <39 | <39 | <39 | <39 | <39 | 40 | <39 | <39 | <39 | <39 | <39 | <39 | <39 | <39 | <39 | 
5 | COc1ccc2sc(-c3ccncc3)nc2c1 | <39 | <39 | <39 | <39 | <39 | <39 | <39 | <39 | 60 | <39 | <39 | <39 | <39 | <39 | <39 | <39 | <39 | <39 | 
6 | COc1ccc2[nH]c(-c3ccncc3)nc2c1 | <39 | <39 | <39 | <39 | <39 | <39 | <39 | <39 | <39 | <39 | <39 | 40 | <39 | 60 | <39 | >80 | <39 | 60 | 
7 | c1ccc2[nH]c(-c3ccncc3)nc2c1 |  |  |  |  |  |  |  |  |  |  |  |  |  |  |  |  |  |  | MIC (Pseudomonas aeruginosa): 100 µg/mL (≈ 512 µM)
8 | CCOc1ccc2sc(-c3ccncc3)nc2c1 | <39 | <39 | <39 | <39 | <39 | <39 | <39 | <39 | >80 | <39 | <39 | <39 | <39 | <39 | <39 | <39 | <39 | <39 | 
9 | Cc1cccc2[nH]c(-c3ccccn3)nc12 | <39 | <39 | <39 | <39 | <39 | <39 | <39 | <39 | <39 | <39 | <39 | <39 | <39 | <39 | <39 | 40 | <39 | 60 | 
10 | c1ccc2nc(-c3nc4ccccc4[nH]3)ccc2c1 |  |  |  |  |  |  |  |  |  |  |  |  |  |  |  |  |  |  | MIC (Pseudomonas aeruginosa): 100 µg/mL (≈ 408 µM)
11 | Cc1ccc2nc(-c3ccccn3)[nH]c2c1 | <39 | <39 | <39 | <39 | <39 | <39 | <39 | 60 | <39 | 40 | <39 | 60 | <39 | 40 | <39 | 60 | <39 | <39 | MIC (Bacillus subtilis): 100 µg/mL (≈ 478 µM); MIC (Escherichia coli): 50 µg/mL (≈ 239 µM)
12 | Clc1ccc2sc(-c3ccccn3)nc2c1 | <39 | <39 | <39 | <39 | <39 | <39 | <39 | 40 | >80 | 60 | <39 | <39 | <39 | <39 | <39 | <39 | <39 | <39 | 
13 | c1ccc(-c2nc3ccccc3[nH]2)nc1 | <39 | <39 | <39 | <39 | <39 | <39 | <39 | <39 | <39 | <39 | <39 | >80 | <39 | 60 | <39 | <39 | <39 | 60 | MIC (Bacillus subtilis): 100 µg/mL (≈ 512 µM); MIC (Pseudomonas aeruginosa): 100 µg/mL (≈ 512 µM)
14 | CCOc1ccc2sc(-c3ccccn3)nc2c1 | <39 | <39 | <39 | <39 | 40 | <39 | <39 | 60 | 40 | 40 | <39 | <39 | <39 | <39 | <39 | <39 | <39 | <39 | 
15 | c1ccc2oc(-c3nc4ccccc4s3)nc2c1 | <39 | <39 | <39 | <39 | <39 | <39 | <39 | <39 | <39 | <39 | <39 | <39 | <39 | <39 | <39 | <39 | <39 | <39 | 
16 | O=[N+]([O-])c1cccc2nc(-c3ccccn3)[nH]c12 | <39 | <39 | <39 | <39 | <39 | <39 | <39 | <39 | <39 | <39 | <39 | <39 | <39 | <39 | <39 | 40 | <39 | <39 | 
17 | c1ccc2nc(-c3nc4ccccc4s3)ccc2c1 | <39 | <39 | <39 | <39 | <39 | <39 | <39 | <39 | <39 | <39 | <39 | <39 | <39 | <39 | <39 | <39 | <39 | <39 | 
